The results in this text go back to ChEMBL document CHEMBL3045306, “Ultrasound-promoted synthesis, biological evaluation and molecular docking of novel 7-(2-chloroquinolin-4-yloxy)-4-methyl-2H-chromen-2-one derivatives” (2013).

Format in all cases: functional
The test system of test [1] is Radical scavenging activity. As to the kind of experiment: Antioxidant activity assessed as inhibition of DPPH radical formation at 1000 ug after 30 mis UV-Vis spectrophotometric analysis.
For test [2], the system named is Radical scavenging activity. As to the kind of experiment: Antioxidant activity assessed as inhibition of DPPH radical formation at 500 ug after 30 mis UV-Vis spectrophotometric analysis. For orientation: DPPH is a stable violet radical that fades when it is reduced.
Test [3] relates to Radical scavenging activity. As to the kind of experiment: Antioxidant activity assessed as inhibition of DPPH radical formation at 100 ug after 30 mis UV-Vis spectrophotometric analysis.
The subject of test [4] is Radical scavenging activity. Kind of test: Antioxidant activity assessed as inhibition of DPPH radical formation at 50 ug after 30 mis UV-Vis spectrophotometric analysis.
In another test the test system is Meloidogyne. Kind of test: Nematicidal activity against Meloidogyne litoralis assessed as growth inhibition.
Another test relates to Pseudomonas aeruginosa. As to the kind of experiment: Antibacterial activity against Pseudomonas aeruginosa assessed as growth inhibition.
A further test concerns Staphylococcus aureus. Kind of test: Antibacterial activity against Staphylococcus aureus assessed as growth inhibition.
The next test deals with Escherichia coli. Kind of test: Antibacterial activity against Escherichia coli assessed as growth inhibition.
The next test relates to Bacillus subtilis. Kind of test: Antibacterial activity against Bacillus subtilis assessed as growth inhibition.

≈ marks a conversion by molar mass, not a printed value.

A word on the inhibition: it is the drop in the measured response relative to a control, in per cent. With `Cc1cc(C(C)(C)C)c(O)c(C(C)(C)C)c1`, the inhibition in test [1] amounted to 98%; in test [2], 96%; in test [3] it was 94%; in test [4], 93%.
The term MIC denotes the smallest concentration in the dilution series that meets the test's criterion for growth inhibition. `Cc1cc(=O)oc2cc(Oc3cc(Cl)nc4ccc(Br)cc34)ccc12`: the inhibition worked out at 76% in test [1], 54% in test [2], 26% in test [3] and 24% in test [4]. Moreover, the MIC in the test on Meloidogyne came out at 6.25 µg/mL (≈ 15 µM); with Pseudomonas aeruginosa, 50 µg/mL (≈ 120 µM).
As for `Cc1ccc2nc(Cl)cc(Oc3ccc4c(C)cc(=O)oc4c3)c2c1`, the inhibition in [1] came to 69%; in test [2], 57%; in test [3] it was 20%; in [4] it was 19%. In addition, the MIC in the test on Staphylococcus aureus was determined as 12.5 µg/mL (≈ 35.5 µM); in the test on Pseudomonas aeruginosa, 100 µg/mL (≈ 284 µM); in the test on Escherichia coli, 12.5 µg/mL (≈ 35.5 µM).
Consider `COc1cccc2c(Oc3ccc4c(C)cc(=O)oc4c3)cc(Cl)nc12`, for which the inhibition came out at 69% in test [1], 38% in test [2], 11% in test [3] and 8% in [4]. Further, the MIC with Bacillus subtilis worked out at 100 µg/mL (≈ 272 µM); with Pseudomonas aeruginosa, 6.25 µg/mL (≈ 17 µM); in the test with Escherichia coli, 6.25 µg/mL (≈ 17 µM).
For `CN[C@@H]1[C@H](O[C@H]2[C@H](O[C@H]3[C@H](O)[C@@H](O)[C@H](N=C(N)N)[C@@H](O)[C@@H]3N=C(N)N)O[C@@H](C)[C@]2(O)C=O)O[C@@H](CO)[C@H](O)[C@H]1O` [STREPTOMYCIN], the MIC worked out at 12.5 µg/mL (≈ 21.5 µM) in the test with Bacillus subtilis; 25 µg/mL (≈ 43 µM) in the test with Staphylococcus aureus; 6.25 µg/mL (≈ 10.7 µM) with Meloidogyne; 12.5 µg/mL (≈ 21.5 µM) with Pseudomonas aeruginosa; 6.25 µg/mL (≈ 10.7 µM) in the test with Escherichia coli.
As for `Cc1ccc2c(Oc3ccc4c(C)cc(=O)oc4c3)cc(Cl)nc2c1`, the inhibition in test [1] amounted to 65%; in test [2], 35%; in [3], 11%; in test [4], 10%. Further, the minimum inhibitory concentration (MIC) with Pseudomonas aeruginosa amounted to 12.5 µg/mL (≈ 35.5 µM).
Take `Cc1cc(=O)oc2cc(Oc3cc(Cl)nc4c3ccc3ccccc34)ccc12`: the inhibition in test [1] stood at 67%; in test [2] it was 40%; in test [3] it was 15%; in [4], 14%. In addition, the values for the MIC with Staphylococcus aureus, in the test with Pseudomonas aeruginosa and in the test with Escherichia coli were 50 µg/mL (≈ 129 µM), 6.25 µg/mL (≈ 16.1 µM) and 6.25 µg/mL (≈ 16.1 µM), respectively.
Take `Cc1cc(=O)oc2cc(Oc3cc(Cl)nc4ccccc34)ccc12`: the inhibition amounted to 78% in test [1], 53% in [2], 23% in test [3] and 21% in [4]. Also, the minimal inhibitory concentration (MIC) in the test with Staphylococcus aureus is 50 µg/mL (≈ 148 µM); in the test on Meloidogyne, 100 µg/mL (≈ 296 µM); with Pseudomonas aeruginosa, 12.5 µg/mL (≈ 37 µM); with Escherichia coli, 100 µg/mL (≈ 296 µM).
As for `Cc1cc(=O)oc2cc(Oc3cc(Cl)nc4c(C)cccc34)ccc12`, the inhibition in test [1] was 68%; in test [2], 45%; in test [3], 14%; in test [4], 12%. In addition, the MIC with Meloidogyne stood at 100 µg/mL (≈ 284 µM); with Escherichia coli it was 6.25 µg/mL (≈ 17.8 µM).
